Assay results as given in US12583868B2, “JAK inhibitors and methods for synthesizing and using thereof” (GALDERMA HOLDING SA, priority 2020, dated 2026).
Entries after “also recorded” stand apart in the source; their conditions may differ.

What was measured:
SF logD = assay type: physicochemical
[1] = Human skin ex vivo: flux through skin and dermis concentration (Franz cells); assay type: in vitro ADME; conditions: PG/H2O cream 1 mg/mL, human skin
[2] = In vivo pharmacokinetic analysis in rat (iv); parameters: species or system male Wistar Han rat; conditions: iv 1 mg/kg
Description: (§1) One male Wistar Han rat. Compound was administered intravenously to fed animal at a target dose of 1 mg/kg, dose volume: 2 mL/kg, in DMSO/hydroxypropyl-beta-cyclodextrin 20% in phosphate buffer 60 mM pH 7 (5:95). Blood samples were collected at various time points. Blood samples were then assayed using a method based upon protein precipitation with acetonitrile followed by LC/MS/MS analysis. Non-compartmental methods were used for pharmacokinetic analysis of blood concentration versus time data

pKa = assay type: physicochemical
[3] = Protein binding analysis (RED), minipig plasma; assay type: in vitro ADME; conditions: male, Göttingen, pH 7.4, read-out: minipig FU
Description: The protein binding was assessed in plasma of Human, male balb-c mice, male Wistar Han rat, male Göttingen minipig by rapid equilibrium dialysis (RED) devices. After the plasma and buffer phosphate 50 mM pH7.4 were equilibrated at 37° C., the compound was added to plasma to reach a final concentration of 5 μM. An aliquot of plasma was withdrawn immediately. Equilibration under mild agitation was continued for 4 h. The plasma and buffer were sampled and samples were quenched with 4 volumes of acetonitrile and centrifuged. Supernatant was quantified in HPLC/MS/MS to calculate the recovery and the percentage of compound dissolved in the buffer (unbound) and bound to plasma proteins.

IL6 = test: hWB assay, IL6; assay type: cell-based, h
p-STAT3Y705 in skin = test: In vivo pharmacodynamy model: IL-6 induced Phospho-STAT3, topical; parameters: species or system BALB/c ByJ Rj mice; PD/IL6 mouse top @1 mM % vs Tofa: unit not given here; conditions: topical 1 mM, PG/EtOH 3/7
[4] = test system: Salmonella typhimurium TA98 and TA100; test: Mini Ames assay (TA98 and TA100); assay type: cell-based; conditions: TA98 & TA100, with and without metabolic activation (S9)
Text: The Ames test in micro-method (in 6-well plates=mini Ames) follows the general principles of the standard Ames's technique. The Ames test used strains of bacteria Salmonella typhimurium that carry mutations in the genes involved in histidine synthesis. These strains are auxotrophic mutants, they require histidine for growth but cannot produce it. The assay was used to observe the ability of the test item to induce reverse mutations allowing the bacteria to grow in a histidine-free medium. The number of bacteria that revert and acquire the wild-type ability to grow in the absence of histidine can be estimated by counting the colonies that develop upon incubation. The use of different strains allows the identification of different mechanisms of gene mutation (TA98 for detection of frameshift mutations and TA100 for detection of base pair substitutions). […]
A toxicity assessment was performed on complete nutriment agar plate (with histidine) to define the highest concentration to be used in the genotoxicity assay. […] The first concentration analyzed in the well (6-well plate) was 500 μg per plate followed by 7 serial dilutions (2 times factor of dilution). […] The viability of the positive and negative controls was analyzed for each strain, in the presence or absence of metabolic activation system, and were compared with historical data to validate the study. […]

[5] = Intrinsic clearance in hepatocytes, rat; assay type: in vitro ADME, male Wistar Han rats; conditions: 2.5 μM
Description: (§2) The intrinsic clearance was assessed in cryopreserved Hepatocytes obtained by Human livers donors of mix gender pooled together, male balb-c mouse, male Wistar Han rats and male Göttingen minipig, by looking at the parent compound disappearance. The incubations were performed using a final concentration of viable cells of 1 million/ml (viability above 70%) and test item of 2.5 μM. Incubations were followed up to 2 h. Aliquotes were withdrawn at different time points and reaction quenched with acetonitrile. After centrifugation the supernatant was analyzed by HPLC/MS to quantify the remaining amount of parent in comparison with time 0. The clearance was calculated by fitting the log of the percentage remaining with Graphpad Prism ver.7.

[6] = Intrinsic clearance in hepatocytes, human; assay type: in vitro ADME; conditions: 2.5 μM
Description: as §2

Tyk2 enzyme = target: T1, Tyk2 enzyme (Homo sapiens, UniProt P29597); test: In vitro enzyme assay (Cisbio kinase assay), Tyk2; assay type: biochemical; conditions: ATP 300 μM; read-out: Enzymatic assay: Tyk2
T1 construct: purchased Life Technologies PR8440C

[7] = In vivo pharmacokinetic analysis in minipig (iv); parameters: species or system male Göttingen minipigs; conditions: iv 1 mg/kg
Description: as §1, with “Three” for “One”, “Göttingen minipigs.” for “Wistar Han rat.”, “animals” for “animal”, “volume 1” for “volume: 2”, “DMSO: hydroxypropyl-p-cyclodextrin” for “DMSO/hydroxypropyl-beta-cyclodextrin”, “data.” for “data”

[8] = Intrinsic clearance in hepatocytes, minipig; assay type: in vitro ADME, male Göttingen minipig; conditions: 2.5 μM
Description: as §2

[9] = Systemic level in PD/IL6 mouse topical dose response; assay type: in vivo, BALB/c ByJ Rj mice; conditions: topical 10 mM
Description: Skin samples were harvested 15 min.

[10] = Intrinsic clearance in hepatocytes, mouse; assay type: in vitro ADME, male balb-c mouse; conditions: 2.5 μM
Description: as §2

T1 sequence (P29597 whole entry): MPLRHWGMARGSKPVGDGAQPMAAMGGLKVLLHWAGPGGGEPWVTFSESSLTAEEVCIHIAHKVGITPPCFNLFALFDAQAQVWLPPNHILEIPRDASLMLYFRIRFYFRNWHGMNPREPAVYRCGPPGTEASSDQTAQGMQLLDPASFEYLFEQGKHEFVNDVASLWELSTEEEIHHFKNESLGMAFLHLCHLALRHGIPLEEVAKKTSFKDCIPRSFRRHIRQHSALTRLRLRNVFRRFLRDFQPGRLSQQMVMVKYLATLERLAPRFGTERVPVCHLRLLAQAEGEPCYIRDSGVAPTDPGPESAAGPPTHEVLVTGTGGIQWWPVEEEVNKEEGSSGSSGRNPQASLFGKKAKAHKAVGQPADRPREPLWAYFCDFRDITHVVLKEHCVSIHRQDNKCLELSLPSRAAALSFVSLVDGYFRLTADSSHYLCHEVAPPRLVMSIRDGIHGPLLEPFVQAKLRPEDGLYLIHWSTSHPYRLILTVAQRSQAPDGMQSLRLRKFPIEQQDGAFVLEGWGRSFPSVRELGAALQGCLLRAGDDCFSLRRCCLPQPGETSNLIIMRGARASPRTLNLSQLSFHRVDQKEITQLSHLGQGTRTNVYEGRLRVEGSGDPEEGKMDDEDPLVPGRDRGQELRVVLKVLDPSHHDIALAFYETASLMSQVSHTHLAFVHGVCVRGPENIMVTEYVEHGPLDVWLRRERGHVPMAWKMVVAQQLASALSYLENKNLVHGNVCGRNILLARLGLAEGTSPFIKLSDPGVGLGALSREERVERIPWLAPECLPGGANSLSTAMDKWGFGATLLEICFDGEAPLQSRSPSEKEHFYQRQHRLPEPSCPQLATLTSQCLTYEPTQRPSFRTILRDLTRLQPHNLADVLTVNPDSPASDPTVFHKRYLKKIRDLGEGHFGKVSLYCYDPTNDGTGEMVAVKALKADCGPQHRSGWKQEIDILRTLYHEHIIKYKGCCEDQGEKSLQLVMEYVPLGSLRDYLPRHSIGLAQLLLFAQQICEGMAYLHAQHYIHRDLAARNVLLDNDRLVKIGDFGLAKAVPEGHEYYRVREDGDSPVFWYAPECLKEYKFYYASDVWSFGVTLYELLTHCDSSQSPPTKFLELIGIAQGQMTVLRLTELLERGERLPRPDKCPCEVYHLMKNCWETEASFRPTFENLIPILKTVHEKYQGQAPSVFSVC

Question: With `O=S(=O)(N[C@H]1C[C@@H](N2CCOc3cnc4[nH]ccc4c32)C1)C1CN(C2CC2)C1` [Compound E, 1-Cyclopropyl-N-((cis)-3-(2,3-dihydropyrrolo[3′,2′:5,6]pyrido[3,4-b][1,4]oxazin-1(7H)-yl)cyclobutyl)azetidine-3-sulfonamide] as the compound, how does the logD (SF logD) read?
Answer: The logD was 2.1.

Question: And the dermis concentration [1]?
Answer: The dermis concentration was 2.2 µM.

Question: What about the “measured flux 6-24 hr” value [1] of the same compound?
Answer: The value was less than 0.24 ng/cm^2/hr.

Question: What about the “iv PK rat: ER” value [2] of the same compound?
Answer: Its value is 67%.

Question: And the clearance ([2]; male, Wistar Han, whole blood, read-out: iv PK rat: Cl)?
Answer: The clearance was 52 mL/min/kg.

Question: What about the Vd ([2]; male, Wistar Han, whole blood, read-out: iv PK rat: Vd) of the same compound?
Answer: The Vd was 1.8 L/kg.

Question: What about the half-life ([2]; male, Wistar Han, whole blood, read-out: iv PK rat: t½ (converted)) of the same compound?
Answer: The half-life was 23.4 min.

Question: What about the pKa (pKa) of the same compound?
Answer: Its pKa is 6.1.

Question: What about the fraction unbound at 4 h, 5 μM [3] of the same compound?
Answer: The fraction unbound at 4 h, 5 μM was 0.32.

Question: And the IC50 (IL6)?
Answer: The IC50 was 1600 nM.

Question: And the “PD/IL6 mouse top @1 mM % inh vs vehicle” value (p-STAT3Y705 in skin)?
Answer: Its value is 63%.

Question: And the “PD/IL6 mouse top @1 mM % vs Tofa” value (p-STAT3Y705 in skin)?
Answer: The value was 0.97.

Question: And the AMES [4]?
Answer: Its AMES is “not considered to be mutagenic; also recorded: Neg/Neg”.

Question: And the “Intr. Clear. rheps” value [5]?
Answer: Its value is 40 microL/min/10 6 cells.

Question: And the “Intr. Clear. h heps” value [6]?
Answer: Its value is 6.5 microL/min/10 6 cells.

Question: What about the IC50 (Tyk2 enzyme) of the same compound?
Answer: The IC50 was 3450 nM.

Question: What about the “iv PK minipig: ER” value [7] of the same compound?
Answer: The value was 171%.

Question: What about the clearance ([7]; male, Göttingen, whole blood, read-out: iv PK minipig: Cl) of the same compound?
Answer: The clearance was 48 mL/min/kg.

Question: And the “Intr. Clear. minipig heps” value [8]?
Answer: The value was 44 microL/min/10 6 cells.

Question: And the “PD/IL6 mouse top DR 0.01-10 mM (PG/Acetone/Transcutol): Systemic level @10 mM - 2 hrs” value [9]?
Answer: The value was 185 nM.

Question: What about the “Intr. Clear. mheps” value [10] of the same compound?
Answer: The value was 28 microL/min/10 6 cells.
